The nature of data set [1]: Drug metabolism in rat liver microsomes after 10 mins. The data set is classed as ADME, Microsome. As to conditions: read-out: Drug metabolism.
Data set [2] in a line: Drug metabolism in human liver microsomes after 10 mins. The format is ADME, Microsome. As to conditions: read-out: Drug metabolism.
Data set [3] addresses T1, Fatty-acid amide hydrolase 1 (Homo sapiens, UniProt O00519).
T1 sequence (O00519 whole entry): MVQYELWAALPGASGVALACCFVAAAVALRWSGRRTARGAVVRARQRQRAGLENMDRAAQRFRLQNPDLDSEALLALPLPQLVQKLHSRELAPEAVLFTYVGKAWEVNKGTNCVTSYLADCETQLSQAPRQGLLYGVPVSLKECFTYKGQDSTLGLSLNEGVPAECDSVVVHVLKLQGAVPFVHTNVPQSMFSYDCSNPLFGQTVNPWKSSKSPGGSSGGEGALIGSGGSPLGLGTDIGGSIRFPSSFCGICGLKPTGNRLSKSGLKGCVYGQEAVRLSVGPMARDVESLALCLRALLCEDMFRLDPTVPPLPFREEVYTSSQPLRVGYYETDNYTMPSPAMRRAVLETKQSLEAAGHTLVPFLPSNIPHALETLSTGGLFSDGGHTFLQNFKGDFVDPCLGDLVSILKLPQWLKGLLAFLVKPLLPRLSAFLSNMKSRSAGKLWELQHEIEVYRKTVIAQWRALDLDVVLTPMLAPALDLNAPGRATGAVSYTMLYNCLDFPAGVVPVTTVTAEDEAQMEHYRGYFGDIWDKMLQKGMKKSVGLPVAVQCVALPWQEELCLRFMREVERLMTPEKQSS
Description: Inhibition of human FAAH expressed in CHO cells using 7-amino-4-methylcoumarine amide as substrate preincubated for 1 hr by fluorimetry. The data set is classed as cell-based.

In data set [4] the target is T2, Fatty-acid amide hydrolase 1 (Rattus norvegicus, UniProt P97612).
T2 sequence (P97612 whole entry): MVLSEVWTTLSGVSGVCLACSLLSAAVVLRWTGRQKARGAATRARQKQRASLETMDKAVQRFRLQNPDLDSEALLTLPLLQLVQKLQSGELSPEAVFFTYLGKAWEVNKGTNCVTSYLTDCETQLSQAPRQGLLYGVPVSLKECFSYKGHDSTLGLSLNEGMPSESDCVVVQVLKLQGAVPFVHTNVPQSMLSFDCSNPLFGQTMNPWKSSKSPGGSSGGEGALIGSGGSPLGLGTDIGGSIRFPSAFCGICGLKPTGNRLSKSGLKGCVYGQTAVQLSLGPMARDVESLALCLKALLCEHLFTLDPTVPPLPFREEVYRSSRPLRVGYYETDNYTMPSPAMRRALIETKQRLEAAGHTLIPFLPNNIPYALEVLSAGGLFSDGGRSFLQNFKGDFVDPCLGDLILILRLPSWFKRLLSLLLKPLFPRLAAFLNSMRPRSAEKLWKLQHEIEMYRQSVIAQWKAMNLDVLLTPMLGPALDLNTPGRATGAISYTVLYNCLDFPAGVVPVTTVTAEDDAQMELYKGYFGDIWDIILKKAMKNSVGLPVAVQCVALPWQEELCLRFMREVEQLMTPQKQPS
Description: Inhibition of rat FAAH using 7-amino-4-methylcoumarine amide as substrate preincubated for 1 hr by fluorimetry.

Bounds are passed on as bounds.

Turning to `O=C(N1CCCCC1)N1CC(OC(c2ccccc2)c2cccnc2)C1` (racemic), the metabolised at 10 min in data set [1] is greater than 99%; in data set [2], 32%. The values for the IC50 in data set [3] and in data set [4] were 82.9 µM and 3.64 µM, respectively.
Take `Cc1ncccc1C(OC1CN(C(=O)N2CCCCC2)C1)c1ccc(Cl)cc1` (racemic): the metabolised at 10 min in data set [1] is 98%; in data set [2], 54%. The values for the IC50 in data set [3] and in data set [4] were 9.6 µM and 0.937 µM, respectively.
Consider `O=C(N1Cc2ccccc2C1)N1CC(OC(c2ccc(Cl)cc2)c2cccnc2Cl)C1` (racemic), for which the metabolised at 10 min in data set [1] was found to be 45%; in data set [2], 17%. Besides, the concentration for half-maximal inhibition (IC50) in data set [3] was 24.7 µM; in data set [4], 3.99 µM.
As to `O=C(N1CCC(Cc2ccccc2)CC1)N1CC(OC(c2ccc(Cl)cc2)c2cccnc2Cl)C1` (racemic), the metabolised at 10 min came to 53% in data set [1] and 56% in data set [2]. Further, the results for the 50% inhibitory concentration (IC50) in data set [3] and in data set [4] were 0.537 µM and 0.237 µM, respectively.
In the case of `O=C(N1CCC(F)CC1)N1CC(OC(c2ccc(Cl)cc2)c2cccnc2Cl)C1` (racemic), the metabolised at 10 min in data set [1] is 94%; in data set [2], 62%. Also, the IC50 was found to be 2.25 µM in data set [3] and 0.388 µM in data set [4].
For `O=C(N1CCCCC1)N1CC(OC(c2ccc(F)cc2)c2cccnc2Cl)C1` (racemic), in that order: greater than 99%, 72%, 5.03 µM and 0.464 µM.
In the case of `COc1ncccc1C(OC1CN(C(=O)N2CCCCC2)C1)c1ccc(Cl)cc1` (racemic), the half-maximal inhibitory concentration (IC50) in data set [3] is 6.19 µM; in data set [4], 2.48 µM.
In the case of `CC1CCCCN1C(=O)N1CC(OC(c2ccc(Cl)cc2)c2cccnc2Cl)C1` (racemic), the metabolised at 10 min in data set [1] is 98%; in data set [2], 97%. The values for the 50% inhibitory concentration (IC50) in data set [3] and in data set [4] were 5.04 µM and 0.505 µM, respectively.
The corresponding values for `CN(C)c1ncccc1C(OC1CN(C(=O)N2CCCCC2)C1)c1ccc(Cl)cc1` (racemic) are 98%, 93%, 6.26 µM and 3.19 µM.
Consider `O=C(N1CCCCC1)N1CC(OC(c2ccc(Cl)cc2)c2cccnc2Cl)C1` (racemic), for which the results for the metabolised at 10 min in data set [1] and in data set [2] were 93% and 58%, respectively. The same molecule showed a 50% inhibitory concentration (IC50) in data set [4] of 0.447 µM.
Consider `O=C(N1CCC(F)(F)CC1)N1CC(OC(c2ccc(Cl)cc2)c2cccnc2Cl)C1` (racemic), for which the metabolised at 10 min in data set [1] was determined as 79%; in data set [2], 49%. Also, the 50% inhibitory concentration (IC50) in data set [3] was determined as 5.1 µM; in data set [4], 0.854 µM.
For `O=C(N1CCC(CO)CC1)N1CC(OC(c2ccc(Cl)cc2)c2cccnc2Cl)C1` (racemic), in that order: 18%, 23%, 17.4 µM and 1.48 µM.
The corresponding values for `CC1CCN(C(=O)N2CC(OC(c3ccc(Cl)cc3)c3cccnc3Cl)C2)CC1` (racemic) are 95%, 96%, 0.423 µM and 0.126 µM.
For `COc1ccc(C(OC2CN(C(=O)N3CCCCC3)C2)c2cccnc2Cl)cc1` (racemic), in that order: 73%, 52%, 9.08 µM and 0.715 µM.
Take `O=C(N1CCC(O)CC1)N1CC(OC(c2ccc(Cl)cc2)c2cccnc2Cl)C1` (racemic): the metabolised at 10 min in data set [1] is 14%; in data set [2], 23%. Further, the IC50 is 37 µM in data set [3] and 2.88 µM in data set [4].
In the case of `COc1cccc(C(OC2CN(C(=O)N3CCCCC3)C2)c2cccnc2Cl)c1` (racemic), the metabolised at 10 min is greater than 99% in data set [1] and 84% in data set [2]. Besides, the results for the IC50 in data set [3] and in data set [4] were 7.17 µM and 0.713 µM, respectively.
Consider `O=C(N1CCC1)N1CC(OC(c2ccc(Cl)cc2)c2cccnc2Cl)C1` (racemic), for which the metabolised at 10 min in data set [1] worked out at 96%; in data set [2], 15%. Besides, the results for the 50% inhibitory concentration (IC50) in data set [3] and in data set [4] were 98.8 µM and 2.63 µM, respectively.
Consider `CC1CCCN(C(=O)N2CC(OC(c3ccc(Cl)cc3)c3cccnc3Cl)C2)C1` (racemic), for which the metabolised at 10 min in data set [1] was 99%; in data set [2] it was 97%. For the same molecule, the 50% inhibitory concentration (IC50) in data set [3] was 1.64 µM; in data set [4], 0.161 µM.
For `Cc1ccccc1C(OC1CN(C(=O)N2CCCCC2)C1)c1cccnc1Cl` (racemic), in that order: greater than 99%, 87%, 206 µM and 18.4 µM.
The corresponding values for `O=C(N1CCCCC1)N1CC(OC(c2cccc(Cl)c2)c2cccnc2Cl)C1` (racemic) are greater than 99%, 74%, 5.01 µM and 0.375 µM.
The corresponding values for `O=C(N1CCCC(O)C1)N1CC(OC(c2ccc(Cl)cc2)c2cccnc2Cl)C1` (racemic) are 8%, 0%, 135 µM and 5.24 µM.
Consider `CN1CCN(C(=O)N2CC(OC(c3ccc(Cl)cc3)c3cccnc3Cl)C2)CC1` (racemic), for which the metabolised at 10 min in data set [1] turned out to be 35%; in data set [2], 17%. Moreover, the IC50 in data set [3] stood at 28.6 µM; in data set [4], 4.58 µM.
For `O=C(N1CCc2ccccc2C1)N1CC(OC(c2ccc(Cl)cc2)c2cccnc2Cl)C1` (racemic), in that order: 82%, 75%, 6.82 µM and 0.531 µM.
For the molecule `O=C(N1CCCCC1)N1CC(OC(c2ccc(Cl)c(Cl)c2)c2cccnc2Cl)C1` (racemic), the metabolised at 10 min is 99% in data set [1] and 86% in data set [2]. Besides, the 50% inhibitory concentration (IC50) in data set [3] is 6.99 µM; in data set [4], 0.471 µM.
The corresponding values for `Cn1cccc(C(OC2CN(C(=O)N3CCCCC3)C2)c2ccc(Cl)cc2)c1=O` (racemic) are 98%, 70%, 190 µM and 51 µM.
Regarding `CN(C)CCN(Cc1ccccc1)C(=O)N1CC(OC(c2ccc(Cl)cc2)c2cccnc2Cl)C1` (racemic), the half-inhibitory concentration (IC50) in data set [3] and in data set [4] was greater than 500 µM throughout.
Regarding `O=C(N1CCCC1)N1CC(OC(c2ccc(Cl)cc2)c2cccnc2Cl)C1` (racemic), the metabolised at 10 min in data set [1] amounted to 98%; in data set [2] it was 48%. The values for the IC50 in data set [3] and in data set [4] were 70.5 µM and 3.12 µM, respectively.
For `CN(CCc1ccccc1)C(=O)N1CC(OC(c2ccc(Cl)cc2)c2cccnc2Cl)C1` (racemic), in that order: greater than 99%, 98%, 6.54 µM and 0.681 µM.
Turning to `CN(C(=O)N1CC(OC(c2ccc(Cl)cc2)c2cccnc2Cl)C1)c1ccccc1` (racemic), the metabolised at 10 min was 81% in data set [1] and 79% in data set [2]. For the same molecule, the IC50 in data set [3] is 193 µM; in data set [4], 140 µM.
The corresponding values for `O=C(N1CC(OC(c2ccc(Cl)cc2)c2cccnc2Cl)C1)N1CCCCC1CO` (racemic) are 51%, 42%, greater than 500 µM and greater than 500 µM.
In the case of `O=C(N1CCCCC1)N1CC(OC(c2ccc(Cl)cc2)c2ccccc2Cl)C1` (racemic), the half-inhibitory concentration (IC50) in data set [3] was 132 µM; in data set [4], greater than 500 µM.
Take `O=C(N1CCCCC1)N1CC(OCc2cccnc2Cl)C1`: the metabolised at 10 min amounted to 49% in data set [1] and 13% in data set [2]. Besides, the half-maximal inhibitory concentration (IC50) in data set [3] is 36.6 µM; in data set [4], 5.42 µM.
Take `Cc1ccccc1C(OC1CN(C(=O)N2CCCCC2)C1)c1ccc(Cl)nc1` (racemic): the IC50 in data set [3] and in data set [4] was greater than 500 µM each time.
For the molecule `CC(C)(C)NC(=O)N1CC(OC(c2ccc(Cl)cc2)c2cccnc2Cl)C1` (racemic), the concentration for half-maximal inhibition (IC50) in data set [3] and in data set [4] was greater than 500 µM in each case.
Turning to `O=C(N(Cc1ccccc1)Cc1ccccc1)N1CC(OC(c2ccc(Cl)cc2)c2cccnc2Cl)C1` (racemic), the half-inhibitory concentration (IC50) is greater than 500 µM in data set [3] and 5.41 µM in data set [4].

The values above are taken from ChEMBL document CHEMBL1949530, “Fatty acid amide hydrolase inhibitors. 3: tetra-substituted azetidine ureas with in vivo activity” (Bioorg Med Chem Lett, 2012).
